Series [1] is described as follows: Molar enthalpy of transition or fusion. The note with it: DSC.
The conditions of series [2]: for Normal melting temperature: DTA.
Series [3] can be described thus: xn = mol fraction of the nth substance listed. The conditions noted are these: 298.15 K, 77 kPa, Crystal of unknown type, Transient plane heat source method.

Numbers after ± are expanded uncertainties.

`O=C(O)CCCCC(=O)O` [1,6-hexanedioic acid]: in series [1] (Crystal), the “Molar enthalpy of transition or fusion” value came out at 8.57 ± 0.884 kcal/mol. For the same molecule, the Normal melting temperature in series [2] (Crystal) came out at 150.17 ± 2 °C. Take `O=C(O)CCCCCCC(=O)O` [1,8-octanedioic acid]: the results for the “Molar enthalpy of transition or fusion” value in series [1] (Crystal 1) and in series [1] (Crystal 2) were 6.94 ± 0.717 kcal/mol and 2.07 ± 0.215 kcal/mol, respectively. For the same molecule, the Normal melting temperature in series [2] (Crystal 1) worked out at 140.63 ± 2 °C. In series [2] (Crystal 2, DSC), the Triple point temperature amounted to 405.59 ± 2.1 K. On to `O=C(O)CCCCCCCCC(=O)O` [1,10-decanedioic acid], for which the “Molar enthalpy of transition or fusion” value in series [1] (Crystal) turned out to be 10.6 ± 1.08 kcal/mol. In addition, in series [2] (Crystal), the Normal melting temperature is 131.8 ± 2 °C. On the same counts, the results for `CCCCCCCCCCCCCCCCCC(=O)O` [octadecanoic acid] are 13.7 ± 1.39 kcal/mol and 69 ± 2 °C. In the case of `CCCCCCCCCCCCCCCCCC(=O)O` [octadecanoic acid] + O=C(O)CCCCC(=O)O, in series [3] (x1 = 0.962), the thermal conductivity was 0.1439 ± 0.011 W/m/K. Take `O=C(O)CCCCCCCCC(=O)O` [1,10-decanedioic acid] + CCCCCCCCCCCCCCCCCC(=O)O: the thermal conductivity in series [3] (x2 = 0.945) is listed as 0.1802 ± 0.013 W/m/K. `O=C(O)CCCCCCC(=O)O` [1,8-octanedioic acid] + CCCCCCCCCCCCCCCCCC(=O)O: in series [3] (x2 = 0.936), the thermal conductivity amounted to 0.172 ± 0.013 W/m/K.
